Structures can show the parent of a compound that is named as a salt.
Legend:
[1] = system: human monocyte stimulated cytokine production (TNF-α); test: Monocyte assay (LPS-stimulated TNF-α production); type: cell-based; details: for IC50: 24 h, 200 ng/mL LPS, TNF-α by ELISA; for inhibition at 0.3 µM: read-out: inhibition at 300 nM in the monocyte assay
Method in brief: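 TNF-α release was measured by ELISA after 24 hrs at 37 C. Cells were stimulated with 200 ng/mL E. coli LPS, with compound added 30 minutes beforehand (0.1% DMSO vehicle). Cells were Ficoll/MACS-isolated CD14+ human monocytes adhered at 1×10^6 cells/mL, and viability was checked by trypan blue.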

[2] = biological target: T1, Recombinant human IKKβ (residues 1-737) (Homo sapiens, UniProt O14920); test: IKK2 assay (TR-FRET); type: biochemical; details: ATP 1 μM final, read-out: pIC50 against IKK2 (converted)
T1 construct: Recombinant human IKKβ (residues 1-737); GST (C); made in house
T1 sequence (O14920 1-737): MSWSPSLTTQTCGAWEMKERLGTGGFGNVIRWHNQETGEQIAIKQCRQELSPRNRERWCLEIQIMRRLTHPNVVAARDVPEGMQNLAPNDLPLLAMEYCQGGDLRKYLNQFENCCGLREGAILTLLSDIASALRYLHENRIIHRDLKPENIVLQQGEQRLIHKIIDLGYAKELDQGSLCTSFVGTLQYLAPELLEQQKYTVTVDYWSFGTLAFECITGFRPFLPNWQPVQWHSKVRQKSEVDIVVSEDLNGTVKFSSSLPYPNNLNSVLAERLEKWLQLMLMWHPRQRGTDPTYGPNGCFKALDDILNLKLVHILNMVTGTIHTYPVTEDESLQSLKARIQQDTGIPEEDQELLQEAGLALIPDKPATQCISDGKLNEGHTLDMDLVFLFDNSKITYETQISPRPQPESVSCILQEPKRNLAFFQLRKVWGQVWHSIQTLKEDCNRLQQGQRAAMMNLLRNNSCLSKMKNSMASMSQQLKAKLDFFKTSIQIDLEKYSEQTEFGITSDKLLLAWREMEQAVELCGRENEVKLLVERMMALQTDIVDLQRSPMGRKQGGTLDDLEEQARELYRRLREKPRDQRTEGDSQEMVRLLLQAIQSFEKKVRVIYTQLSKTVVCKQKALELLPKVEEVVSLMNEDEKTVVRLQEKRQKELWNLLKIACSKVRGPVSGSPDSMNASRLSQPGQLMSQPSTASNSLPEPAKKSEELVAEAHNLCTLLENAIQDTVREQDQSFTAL
Method in brief: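 TR-FRET readout (665 nm over 620 nm Eu reference) of GST-IB Ser32/36 phosphorylation after 60 min detection. Reaction: 1 μM ATP, 25 nM substrate, 0.5-5 nM GST-fused IKKβ 1-737 from baculovirus, pH 7.4 HEPES buffer, 1.7% DMSO, 15 min room temperature, EDTA-terminated.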

IC50 [1]	IC50 [2]	Structure (SMILES)	inhibition at 0.3 µM [1]
≤ 1.5 µM	≤ 10 µM	CCS(=O)(=O)N1CCC(c2c[nH]c3c(C(N)=O)cc(-c4cccc(CN5CCN(CCOCCO)CC5)c4)cc23)CC1 [Example 6, 3-[1-(ethylsulfonyl)-4-piperidinyl]-5-{3-[(4-{2-[(2-hydroxyethyl)oxy]ethyl}-1-Piperazinyl)methyl]phenyl}-1H-indole-7-carboxamide]	
≤ 1.5 µM	≤ 10 µM	CCS(=O)(=O)N1CCC(c2c[nH]c3c(C(N)=O)cc(-c4csc(CN(C)CC5CCOCC5)c4)cc23)CC1 [Example 83, 3-[1-(ethylsulfonyl)-4-piperidinyl]-5-(5-{[methyl(tetrahydro-2H-pyran-4-ylmethyl)amino]methyl}-3-thienyl)-1H-indole-7-carboxamide trifluoroacetate]	
	≤ 10 µM	CCS(=O)(=O)N1CCC(c2c[nH]c3c(C(N)=O)cc(-c4csc(CN5CCCC5c5cccnc5)c4)cc23)CC1 (stereo not shown) [Example 90, 3-[1-(ethylsulfonyl)-4-piperidinyl]-5-(5-{[2-(3-pyridinyl)-1-pyrrolidinyl]methyl}-3-thienyl)-1H-indole-7-carboxamide]	0 to 60%
> 1 µM	≤ 10 µM	CCS(=O)(=O)N1CCC(c2c[nH]c3c(C(N)=O)cc(-c4csc(CNCc5ccccc5)c4)cc23)CC1 [Example 118, 3-[1-(ethylsulfonyl)-4-piperidinyl]-5-(5-{[(phenylmethyl)amino]methyl}-3-thienyl)-1H-indole-7-carboxamide trifluoroacetate]	
≤ 1.5 µM	≤ 10 µM	CCS(=O)(=O)N1CCC(c2c[nH]c3c(C(N)=O)cc(-c4ccc(F)c(CNC5CC5)c4)cc23)CC1 [Example 274, 5-{3-[(cyclopropylamino)methyl]-4-fluorophenyl}-3-[1-(ethylsulfonyl)-4-piperidinyl]-1H-indole-7-carboxamide trifluoroacetate]	
≤ 1.5 µM	≤ 10 µM	CCCCN(C)Cc1cc(-c2cc(C(N)=O)c3[nH]cc(C4CCN(S(=O)(=O)CC)CC4)c3c2)cs1 [Example 67, 5-(5-{[butyl(methyl)amino]methyl}-3-thienyl)-3-[1-(ethylsulfonyl)-4-piperidinyl]-1H-indole-7-carboxamide trifluoroacetate]	
	≤ 10 µM	CCOC(=O)N(C)Cc1cc(-c2cc(C(N)=O)c3[nH]cc(C4CCN(S(=O)(=O)CC)CC4)c3c2)cs1 [Example 433, ethyl[(4-{7-(aminocarbonyl)-3-[1-(ethylsulfonyl)-4-piperidinyl]-1H-indol-5-yl}-2-thienyl)methyl]methylcarbamate]	0 to 60%
≤ 1.5 µM	≤ 10 µM	CCNCc1cc(-c2cc(C(N)=O)c3[nH]cc(C4CCN(S(=O)(=O)CC)CC4)c3c2)cs1 [Example 233, 5-{5-[(ethylamino)methyl]-3-thienyl}-3-[1-(ethylsulfonyl)-4-piperidinyl]-1H-indole-7-carboxamide trifluoroacetate]	
≤ 1.5 µM	≤ 10 µM	CCS(=O)(=O)N1CCC(c2c[nH]c3c(C(N)=O)cc(-c4csc(CNCC5CC5)c4)cc23)CC1 [Example 115, 5-(5-{[(cyclopropylmethyl)amino]methyl}-3-thienyl)-3-[1-(ethylsulfonyl)-4-piperidinyl]-1H-indole-7-carboxamide trifluoroacetate]	
≤ 1.5 µM	≤ 10 µM	CCS(=O)(=O)N1CCC(c2c[nH]c3c(C(N)=O)cc(-c4cc(F)cc(CNCC(C)(C)C)c4)cc23)CC1 [Example 321, 5-(3-{[(2,2-dimethylpropyl)amino]methyl}-5-fluorophenyl)-3-[1-(ethylsulfonyl)-4-piperidinyl]-1H-indole-7-carboxamide trifluoroacetate]	
≤ 1.5 µM	≤ 10 µM	CCS(=O)(=O)N1CCC(c2c[nH]c3c(C(N)=O)cc(-c4csc(C(C(C)C)N5CCCC5)c4)cc23)CC1 (stereo not shown) [Example 250, 3-[1-(ethylsulfonyl)-4-piperidinyl]-5-{5-[2-methyl-1-(1-pyrrolidinyl)propyl]-3-thienyl}-1H-indole-7-carboxamide trifluoroacetate]	
	≤ 10 µM	CCS(=O)(=O)N1CCC(c2c[nH]c3c(C(N)=O)cc(-c4ccc(CNCCC(C)C)s4)cc23)CC1 [Example 190, 3-[1-(ethylsulfonyl)-4-piperidinyl]-5-(5-{[(3-methylbutyl)amino]methyl}-2-thienyl)-1H-indole-7-carboxamide]	0 to 60%
≤ 1.5 µM	≤ 10 µM	CCS(=O)(=O)N1CCC(c2c[nH]c3c(C(N)=O)cc(-c4cc(CNCCCOC)cs4)cc23)CC1 [Example 214, 3-[1-(ethylsulfonyl)-4-piperidinyl]-5-[4-({[3-(methyloxy)propyl]amino}methyl)-2-thienyl]-1H-indole-7-carboxamide trifluoroacetate]	
≤ 1.5 µM	≤ 10 µM	CCS(=O)(=O)N1CCC(c2c[nH]c3c(C(N)=O)cc(-c4cc(F)cc(CN[C@H](C)C(C)(C)C)c4)cc23)CC1 [Example 320, 3-[1-(ethylsulfonyl)-4-piperidinyl]-5-[3-fluoro-5-({[(1R)-1,2,2-trimethylpropyl]amino}methyl)phenyl]-1H-indole-7-carboxamide trifluoroacetate]	
> 1 µM	≤ 10 µM	CCS(=O)(=O)N1CCC(c2c[nH]c3c(C(N)=O)cc(-c4csc(CN5CCC(N6CCCC6)CC5)c4)cc23)CC1 [Example 392, 3-[1-(ethylsulfonyl)-4-piperidinyl]-5-(5-{[4-(1-pyrrolidinyl)-1-piperidinyl]methyl}-3-thienyl)-1H-indole-7-carboxamide trifluoroacetate]	
≤ 1.5 µM	≤ 10 µM	CCS(=O)(=O)N1CCC(c2c[nH]c3c(C(N)=O)cc(-c4csc(CN5CCOCC5)c4)cc23)CC1 [Example 236, 3-[1-(ethylsulfonyl)-4-piperidinyl]-5-[5-(4-morpholinylmethyl)-3-thienyl]-1H-indole-7-carboxamide trifluoroacetate]	
≤ 1.5 µM	≤ 10 µM	CCS(=O)(=O)N1CCC(c2c[nH]c3c(C(N)=O)cc(-c4cccc(CNS(=O)(=O)c5ccc(Cl)cc5)c4)cc23)CC1 [Example 372, 5-[3-({[(4-chlorophenyl)sulfonyl]amino}methyl)phenyl]-3-[1-(ethylsulfonyl)-4-piperidinyl]-1H-indole-7-carboxamide]	
	≤ 10 µM	CCS(=O)(=O)N1CCC(c2c[nH]c3c(C(N)=O)cc(-c4cc(CN5CCOCC5)c5c(c4)OCC5)cc23)CC1 [Example 60, 3-[1-(ethylsulfonyl)-4-piperidinyl]-5-[4-(4-morpholinylmethyl)-2,3-dihydro-1-benzofuran-6-yl]-1H-indole-7-carboxamide]	0 to 60%
≤ 1.5 µM	≤ 10 µM	CCS(=O)(=O)N1CCC(c2c[nH]c3c(C(N)=O)cc(-c4ccc(CN)cc4)cc23)CC1 [Example 30, 5-[4-(aminomethyl)phenyl]-3-[1-(ethylsulfonyl)-4-piperidinyl]-1H-indole-7-carboxamide]	
≤ 1.5 µM	≤ 10 µM	CCS(=O)(=O)N1CCC(c2c[nH]c3c(C(N)=O)cc(-c4csc(CN(C)CC#N)c4)cc23)CC1 [Example 401, 5-(5-{[(cyanomethyl)(methyl)amino]methyl}-3-thienyl)-3-[1-(ethylsulfonyl)-4-piperidinyl]-1H-indole-7-carboxamide]	
> 1 µM	≤ 10 µM	CCS(=O)(=O)N1CCC(c2c[nH]c3c(C(N)=O)cc(-c4ccc(CNC(=O)c5cc(C)nn5C(C)(C)C)cc4)cc23)CC1 [Example 128, 5-{4-[({[1-(1,1-dimethylethyl)-3-methyl-1H-pyrazol-5-yl]carbonyl}amino)methyl]phenyl}-3-[1-(ethylsulfonyl)-4-piperidinyl]-1H-indole-7-carboxamide trifluoroacetate]	
	≤ 10 µM	CCS(=O)(=O)N1CCC(c2c[nH]c3c(C(N)=O)cc(-c4cncc(CN5CCOCC5)c4)cc23)CC1 [Example 176, 3-[1-(ethylsulfonyl)-4-piperidinyl]-5-[5-(4-morpholinylmethyl)-3-pyridinyl]-1H-indole-7-carboxamide]	0 to 60%
> 1 µM	≤ 10 µM	CCCNCc1cccc(-c2cc(C(N)=O)c3[nH]cc(C4CCN(S(=O)(=O)CC)CC4)c3c2)c1 [Example 24, 3-[1-(ethylsulfonyl)-4-piperidinyl]-5-{3-[(propylamino)methyl]phenyl}-1H-indole-7-carboxamide]	

Reference: US8063071B2 (GlaxoSmithKline, LLC, priority 2007, dated 2011)
